This is an account of results in patent US10434075B2, “FKBP52 specific androgen receptor inhibitor, MJC13, for use in treating breast cancer” (THE BOARD OF REGENTS OF THE UNIVERSITY OF TEXAS SYSTEM, priority 2016, dated 2019).

“Also recorded” adds a separate entry of the source.

The target of experiment [1] is T1, β-catenin interaction with AR (Homo sapiens, UniProt P10275).
T1 sequence (P10275 1-920): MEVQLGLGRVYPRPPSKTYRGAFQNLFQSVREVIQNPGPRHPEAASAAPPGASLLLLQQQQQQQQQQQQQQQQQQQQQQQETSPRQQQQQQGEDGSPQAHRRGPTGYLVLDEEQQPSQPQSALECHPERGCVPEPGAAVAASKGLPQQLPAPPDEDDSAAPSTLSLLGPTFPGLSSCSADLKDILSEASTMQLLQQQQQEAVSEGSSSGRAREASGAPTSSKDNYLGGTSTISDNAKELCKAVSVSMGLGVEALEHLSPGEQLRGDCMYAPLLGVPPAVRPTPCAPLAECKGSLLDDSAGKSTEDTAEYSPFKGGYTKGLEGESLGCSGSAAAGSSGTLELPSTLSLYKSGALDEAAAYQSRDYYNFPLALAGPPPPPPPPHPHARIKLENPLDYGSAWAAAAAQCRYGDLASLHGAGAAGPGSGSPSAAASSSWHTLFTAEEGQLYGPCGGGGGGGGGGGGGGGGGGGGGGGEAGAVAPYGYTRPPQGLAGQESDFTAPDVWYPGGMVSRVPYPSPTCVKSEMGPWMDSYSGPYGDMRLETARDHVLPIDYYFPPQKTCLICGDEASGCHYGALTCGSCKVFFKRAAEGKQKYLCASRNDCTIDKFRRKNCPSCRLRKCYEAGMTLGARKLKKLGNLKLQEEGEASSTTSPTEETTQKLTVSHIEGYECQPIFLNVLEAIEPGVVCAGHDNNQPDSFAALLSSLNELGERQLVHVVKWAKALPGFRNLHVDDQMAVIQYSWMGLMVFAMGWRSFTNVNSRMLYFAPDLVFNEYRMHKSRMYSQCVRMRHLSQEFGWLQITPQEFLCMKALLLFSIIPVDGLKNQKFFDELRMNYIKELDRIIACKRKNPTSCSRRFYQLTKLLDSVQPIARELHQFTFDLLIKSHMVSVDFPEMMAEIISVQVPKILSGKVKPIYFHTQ
The experiment is described as follows: β-catenin interaction with AR. To be noted: MJC13 targeting to the AR BF3 surface; prostate cancer cells.

For experiment [2], the system named is AR. To be noted: binding AR BF3 surface; FKBP52-receptor complex prevented from dissociating; cited from earlier work.
Experiment [3] relates to tamoxifen-resistant MCF-7 breast cancer cells. The experiment is described as follows: Proliferation in tamoxifen-resistant MCF-7 breast cancer cells. The experiment is classed as cell-based. To be noted: no difference in AR expression levels, FIG. 2.
In experiment [4] the test system is human prostate cancer cell lines. To be noted: variety of human prostate cancer cell lines; cited from earlier work.
The subject of experiment [5] is ER. In words: E2-induced ER chromatin binding / ER recruitment to E2-dependent promoters. In kind it is cell-based. To be noted: FIG. 3.
The subject of experiment [6] is AR. To be noted: variety of human prostate cancer cell lines; cited from earlier work.
Experiment [7] concerns prostate cancer xenograft. To be noted: prostate cancer xenograft model, preclinical studies; cited from earlier work.
Experiment [8] deals with MCF-7 breast cancer cells. The experiment is described as follows: E2-induced proliferation in MCF-7 breast cancer cells. In kind it is cell-based. To be noted: FIG. 1.

Consider `O=C(Nc1cccc(Cl)c1Cl)C1CCCCC1` [MJC13], for which, in experiment [1], the “β-catenin interaction with AR” value is listed as “abrogates β-catenin interaction with AR”. In addition, the AR cellular localisation result in experiment [2] is listed as “retention of AR in the cytoplasm”. Moreover, in experiment [3], the cell proliferation result is listed as “effectively inhibits cell proliferation”. Also, the “AR-dependent cancer cell proliferation” value in experiment [4] is given as “effectively block”. Further, the “E2-induced ER chromatin binding” value in experiment [5] is “significantly decreases E2-induced ER chromatin binding; also recorded: affects ER recruitment to E2-dependent promoters”. The AR signaling result in experiment [6] was “effectively block AR signaling”. Besides, the tumor growth result in experiment [7] is “impressive effects on tumor growth”. The E2-induced proliferation entry in experiment [8] was “inhibits E2-induced proliferation; also recorded: effective inhibitor of E2-induced BC cell proliferation”.
